Converted amounts (≈) assume the structure as drawn. A value given as a limit tells only on which side of the number the result lay.

The values that follow come from ChEMBL document CHEMBL5143624, “WCK 1152, WCK 1153: Discovery and structure activity relationship for the treatment of resistant pneumococcal and staphylococcal respiratory infections” (Bioorg Med Chem Lett, 2022).

Assay [1] has as its system Staphylococcus aureus. In words: Antibacterial activity against methicillin resistant Staphylococcus aureus assessed as inhibition of bacterial growth incubated for 18 hrs by CLSI based serial agar dilution method. The class given is functional.
For assay [2], the system named is Streptococcus pneumoniae. Nature of the assay: Antibacterial activity against Streptococcus pneumoniae assessed as inhibition of bacterial growth incubated for 18 hrs by CLSI based serial agar dilution method. Format: functional.
For assay [3], the system named is Streptococcus pneumoniae. In words: Antibacterial activity against Streptococcus pneumoniae 5844 harbouring moxifloxacin resistant DNA gyrase and topoisomerase IV mutant assessed as inhibition of bacterial growth incubated for 18 hrs by CLSI based serial agar dilution method. Format: functional. To be noted: Streptococcus pneumoniae, 5844, 18 h.
The subject of assay [4] is Streptococcus pneumoniae. Nature of the assay: Antibacterial activity against fluoroquinolone efflux positive Streptococcus pneumoniae 706 assessed as inhibition of bacterial growth incubated for 18 hrs by CLSI based serial agar dilution method. Format: functional.
The subject of assay [5] is Staphylococcus aureus. In words: Antibacterial activity against methicillin resistant Staphylococcus aureus 032 assessed as inhibition of bacterial growth incubated for 18 hrs by CLSI based serial agar dilution method. The class given is functional.
Assay [6] concerns Streptococcus pneumoniae. In words: Antibacterial activity against beta-lactams, macrolide and fluoroquinolone resistant Streptococcus pneumoniae 718 assessed as inhibition of bacterial growth incubated for 18 hrs by CLSI based serial agar dilution method. The class given is functional.
Assay [7] concerns Staphylococcus aureus. In words: Antibacterial activity against Staphylococcus aureus […] assessed as inhibition of bacterial growth incubated for 18 hrs by CLSI based serial agar dilution method. Format: functional.
For assay [8], the system named is Staphylococcus aureus. Nature of the assay: Antibacterial activity against methicillin resistant Staphylococcus aureus 5076 harbouring DNA gyrase and topoisomerase IV mutant and efflux pump assessed as inhibition of bacterial growth incubated for 18 hrs in presence of efflux inhibitor by CLSI based serial agar dilution method. The class given is functional.
Assay [9] concerns Streptococcus pneumoniae. In words: Antibacterial activity against beta-lactams, macrolide and fluoroquinolone resistant Streptococcus pneumoniae 718 infected in po dosed Swiss mouse septicemia model assessed as protective dose administered on 1 and 5 hrs post infection and measured on day 7. Format: functional, organism-based.
Where [10] appears, read: Staphylococcus aureus, read-out: MIC.
The mark [11] stands for this setting: Streptococcus pneumoniae, 18 h, read-out: MIC.
[12] abbreviates: Staphylococcus aureus, 032, 18 h, read-out: MIC.

In the case of `CCNC1C(C)CN(c2c(F)cc3c(=O)c(C(=O)O)cn(C4CC4)c3c2OC)CC1C` (stereo in doubt), the MIC in the assay with Staphylococcus aureus [1] amounted to 0.2 µg/mL (≈ 0.463 µM); with Streptococcus pneumoniae [2], 1.56 µg/mL (≈ 3.62 µM).

Turning to `CC1(C)CN(c2c(F)cc3c(=O)c(C(=O)O)cn(C4CC4)c3c2F)CCC1N` (stereo not given), the MIC in the assay on Staphylococcus aureus [1] (setting [10]) was 3.12 µg/mL (≈ 7.97 µM); in the assay with Streptococcus pneumoniae [2] (setting [11]), 0.4 µg/mL (≈ 1.02 µM).

As for `COc1c(N2CC(C)C(N)C(C)C2)c(F)cc2c(=O)c(C(=O)O)cn(C3CC3)c12` (stereo in doubt), the MIC with Staphylococcus aureus [1] (setting [10]) and in the assay with Streptococcus pneumoniae [2] (setting [11]) was 0.1 µg/mL (≈ 0.248 µM) throughout.

For `CCC1(CC)CN(c2c(F)cc3c(=O)c(C(=O)O)cn(C4CC4)c3c2OC)CCC1N` (stereo not given), the MIC with Streptococcus pneumoniae [3] is 6.25 µg/mL (≈ 14.5 µM); in the assay on Streptococcus pneumoniae [4] it was under 0.4 µg/mL.

Take `COc1c(N2CC[C@@H](N)C(C)(C)C2)c(F)c(N)c2c(=O)c(C(=O)O)cn(C3CC3)c12`: the MIC in the assay with Staphylococcus aureus [1] (setting [10]) was over 12.5 µg/mL; in the assay on Streptococcus pneumoniae [2] (setting [11]) it was 6.25 µg/mL (≈ 14.9 µM).

For the compound `COc1c(N2CC(C)C(N)C(C)(C)C2)c(F)cc2c(=O)c(C(=O)O)cn(C3CC3)c12` (stereo not given), the MIC stood at 0.1 µg/mL (≈ 0.24 µM) in the assay with Staphylococcus aureus [1] (setting [10]) and 0.2 µg/mL (≈ 0.479 µM) in the assay on Streptococcus pneumoniae [2] (setting [11]).

`Cc1c(F)c(N2CCC(N)C(C)(C)C2)nc2c1c(=O)c(C(=O)O)cn2-c1ccc(F)cc1F` (stereo not given): the MIC is over 12.5 µg/mL in the assay with Staphylococcus aureus [1] (setting [10]) and 1.56 µg/mL (≈ 3.39 µM) with Streptococcus pneumoniae [2] (setting [11]).

As for `CCN(CC)C1CCN(c2c(F)cc3c(=O)c(C(=O)O)cn(C4CC4)c3c2OC)CC1`, the minimum inhibitory concentration (MIC) with Staphylococcus aureus [1] (setting [10]) amounted to 0.2 µg/mL (≈ 0.463 µM); in the assay on Streptococcus pneumoniae [2] (setting [11]), 0.8 µg/mL (≈ 1.85 µM).

Regarding `COc1c(N2CC(C)C(N)C(C)C2)c(F)cc2c(=O)c(C(=O)O)cn(C3CC3)c12` (cis isomer), in the assay on Staphylococcus aureus [1], the minimal inhibitory concentration (MIC) was found to be 0.1 µg/mL (≈ 0.248 µM).

Turning to `COc1c(N2CCC(N)C(C)(C)C2)c(F)c(N)c2c(=O)c(C(=O)O)cn(-c3ccc(F)cc3F)c12` (stereo not given), the minimum inhibitory concentration (MIC) in the assay with Staphylococcus aureus [1] (setting [10]) turned out to be 12.5 µg/mL (≈ 25.5 µM); with Streptococcus pneumoniae [2] (setting [11]), 3.12 µg/mL (≈ 6.36 µM).

Consider `Cc1c(N2CCC(O)C(C)C2)c(F)cc2c(=O)c(C(=O)O)cn(C3CC3)c12` (stereo in doubt; form 1), for which the minimum inhibitory concentration (MIC) was 0.2 µg/mL (≈ 0.534 µM) in the assay on Staphylococcus aureus [5] (setting [12]) and 0.2 µg/mL (≈ 0.534 µM) in the assay on Streptococcus pneumoniae [6] (Streptococcus pneumoniae, 718, 18 h, read-out: MIC).

Take `COc1c(N2CC[C@@H](N)C(C)(C)C2)c(F)cc2c(=O)c(C(=O)O)cn(C3CC3)c12`: the MIC in the assay on Staphylococcus aureus [1] (setting [10]) was 0.05 µg/mL (≈ 0.124 µM); with Staphylococcus aureus [5] (setting [12]) it was 0.8 µg/mL (≈ 1.98 µM); in the assay on Staphylococcus aureus [7], 0.05 µg/mL (≈ 0.124 µM); in the assay with Staphylococcus aureus [8] it was 1.56 µg/mL. For the same compound, in the assay with Streptococcus pneumoniae [9], the EC50 is 20 mg/kg.

With `CC1(C)CN(c2cc3c(cc2F)c(=O)c(C(=O)O)cn3C2CC2)CCC1N` (stereo not given), the minimal inhibitory concentration (MIC) with Staphylococcus aureus [1] (setting [10]) was 12.5 µg/mL (≈ 33.5 µM); in the assay with Streptococcus pneumoniae [2] (setting [11]) it was 0.8 µg/mL (≈ 2.14 µM).

As for `CC1(C)CN(c2c(F)c(N)c3c(=O)c(C(=O)O)cn(C4CC4)c3c2F)CCC1N` (stereo not given), the values for the minimum inhibitory concentration (MIC) with Staphylococcus aureus [1] (setting [10]) and with Streptococcus pneumoniae [2] (setting [11]) were 3.12 µg/mL (≈ 7.68 µM) and 0.1 µg/mL (≈ 0.246 µM), respectively.

On to `C[C@H]1COc2c(N3CCN(C)CC3)c(F)cc3c(=O)c(C(=O)O)cn1c23.C[C@H]1COc2c(N3CCN(C)CC3)c(F)cc3c(=O)c(C(=O)O)cn1c23.O` [LEVOFLOXACIN], for which the MIC in the assay with Staphylococcus aureus [5] (setting [12]) is 6.25 µg/mL. Moreover, the EC50 in the assay with Streptococcus pneumoniae [9] is over 100 mg/kg.

In the case of `COc1c(N2CCC(N)C(C)C2)c(F)cc2c(=O)c(C(=O)O)cn(C3CC3)c12` (stereo not given), the minimal inhibitory concentration (MIC) in the assay on Staphylococcus aureus [1] (setting [10]) amounted to 0.05 µg/mL (≈ 0.128 µM); with Streptococcus pneumoniae [2] (setting [11]), 0.2 µg/mL (≈ 0.514 µM).

As for `CCNC1CCN(c2c(F)cc3c(=O)c(C(=O)O)cn(C4CC4)c3c2OC)CC1(C)C` (stereo not given), the MIC was determined as 0.2 µg/mL (≈ 0.463 µM) with Staphylococcus aureus [1] (setting [10]), 1.56 µg/mL (≈ 3.62 µM) in the assay on Streptococcus pneumoniae [2] (setting [11]) and 1.56 µg/mL (≈ 3.62 µM) in the assay on Streptococcus pneumoniae [4].

`CC1(C)CN(c2ccc3c(=O)c(C(=O)O)cn(-c4ccc(F)cc4F)c3n2)CCC1N` (stereo not given): the results for the minimum inhibitory concentration (MIC) in the assay with Staphylococcus aureus [1] (setting [10]) and in the assay with Streptococcus pneumoniae [2] (setting [11]) were over 12.5 µg/mL and 1.56 µg/mL (≈ 3.64 µM), respectively.

With `Cc1c(N2CCC(N)C(C)C2)c(F)cc2c(=O)c(C(=O)O)cn(C3CC3)c12.Cl` (cis isomer), the EC50 in the assay with Streptococcus pneumoniae [9] came out at 30 mg/kg.

On to `CCNC1C(C)CN(c2c(F)cc3c(=O)c(C(=O)O)cn(C4CC4)c3c2OC)CC1C` (trans isomer), for which the minimum inhibitory concentration (MIC) is 0.012 µg/mL (≈ 0.0278 µM) in the assay with Staphylococcus aureus [1] and 1.56 µg/mL (≈ 3.62 µM) in the assay with Streptococcus pneumoniae [2] (setting [11]).

As to `CCC1CN(c2c(F)cc3c(=O)c(C(=O)O)cn(C4CC4)c3c2OC)CCC1NC` (stereo not given), the figures for the MIC with Staphylococcus aureus [1] (setting [10]) and with Streptococcus pneumoniae [2] (setting [11]) were 0.2 µg/mL (≈ 0.479 µM) and 1.56 µg/mL (≈ 3.74 µM), respectively.

On to `CCC1(C)CN(c2c(F)cc3c(=O)c(C(=O)O)cn(C4CC4)c3c2OC)CCC1N` (stereo not given), for which the values for the MIC in the assay on Staphylococcus aureus [1] (setting [10]), in the assay with Streptococcus pneumoniae [2] (setting [11]) and with Streptococcus pneumoniae [3] were 0.1 µg/mL (≈ 0.24 µM), 0.2 µg/mL (≈ 0.479 µM) and 2.5 µg/mL (≈ 5.99 µM), respectively.

As for `CCC1CN(c2c(F)cc3c(=O)c(C(=O)O)cn(C4CC4)c3c2OC)CCC1N` (stereo not given), the MIC with Staphylococcus aureus [1] (setting [10]) turned out to be 0.1 µg/mL (≈ 0.248 µM); in the assay with Streptococcus pneumoniae [2] (setting [11]) it was 0.8 µg/mL (≈ 1.98 µM).

Consider `COc1c(N2CCC(N)C(C)(C)C2)c(F)c(N)c2c(=O)c(C(=O)O)cn(C3CC3)c12` (stereo not given), for which the values for the minimal inhibitory concentration (MIC) with Staphylococcus aureus [1] (setting [10]) and with Streptococcus pneumoniae [2] (setting [11]) were 3.12 µg/mL (≈ 7.46 µM) and 0.2 µg/mL (≈ 0.478 µM), respectively.

As to `Cc1c(N2CCC(N)C(C)(C)C2)c(F)cc2c(=O)c(C(=O)O)cn(C3CC3)c12` (racemic), the minimum inhibitory concentration (MIC) with Staphylococcus aureus [5] (18 h) and in the assay with Streptococcus pneumoniae [6] (18 h) was 1.56 µg/mL (≈ 4.03 µM) in each case.

For `CCC1(C)CN(c2c(F)cc3c(=O)c(C(=O)O)cn(C4CC4)c3c2OC)CCC1NC1CC1` (stereo not given), the minimum inhibitory concentration (MIC) in the assay on Streptococcus pneumoniae [3] is over 6.25 µg/mL; in the assay with Streptococcus pneumoniae [4], 0.4 µg/mL (≈ 0.874 µM).
